Measurements as given in patent publication US7612104B2, “Bicyclic aryl-sulfonic acid [1,3,4]-thiadiazol-2-yl-amides, processes for their preparation, pharmaceutical compositions and methods for their use” (Sanofi-Aventis, priority 2005, dated 2009).

Target: T1, human PPARgamma (Homo sapiens, UniProt P37231)
T1 construct: amino acids I152-Y475; expressed in transfected cells; host or cells: HEK cells, transiently transfected (pcDNA3-GAL4-humanPPARgammaLBD)
T1 sequence (P37231 182-477 isoform P37231-2 limits assumed): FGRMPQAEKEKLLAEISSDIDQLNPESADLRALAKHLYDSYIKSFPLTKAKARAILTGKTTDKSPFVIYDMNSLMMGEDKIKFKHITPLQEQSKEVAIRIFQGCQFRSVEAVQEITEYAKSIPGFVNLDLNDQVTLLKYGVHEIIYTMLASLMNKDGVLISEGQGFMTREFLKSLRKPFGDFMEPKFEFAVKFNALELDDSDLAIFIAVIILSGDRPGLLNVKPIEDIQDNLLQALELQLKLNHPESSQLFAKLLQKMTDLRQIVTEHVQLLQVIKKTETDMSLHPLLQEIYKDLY
Assay: Cellular PPARgamma assay (transiently transfected HEK cells, luciferase reporter)
Type: cell-based
Conditions: HEK cells transiently transfected with GAL4-humanPPARgammaLBD
Source text: A transient transfection system is employed to determine the cellular PPARgamma activity of PPAR agonists. It is based on the use of a luciferase reporter plasmid (pGL3basic-5xGAL4-TK) and of a PPARgamma expression plasmid (pcDNA3-GAL4-humanPPARgammaLBD). Both plasmids are transiently transfected into human embryonic kidney cells (HEK cells). There is then expression in these cells of the fusion protein GAL4-humanPPARgammaLBD which binds to the GAL4 binding sites of the reporter plasmid. In the presence of a PPARgamma-active ligand, the activated fusion protein GAL4-humanPPARgammaLBD induces expression of the luciferase reporter gene, which can be detected in the form of a chemiluminescence signal after addition of a luciferase substrate. As a difference from the stably transfected PPARalpha reporter cell line, in the cellular PPARgamma assay the two components (luciferase reporter plasmid and PPARgamma expression plasmid) are transiently transfected into HEK cells because stable and permanent expression of the PPARgamma fusion protein is cytotoxic.
The luciferase reporter plasmid pGL3basic-5xGAL4-TK is based on the vector pGL3basic from Promega. The reporter plasmid is prepared by cloning five binding sites of the yeast transcription factor GAL4 (each binding site with the sequence 5′-CTCGGAGGACAGTACTCCG-3′), together with a 160 bp-long thymidine kinase promoter section (Genbank Accession #AF027128) 5′-upstream into pGL3basic. 3′-downstream of the thymidine kinase promoter is the complete luciferase gene from Photinus pyralis (Genbank Accession #M15077) which is already a constituent of the plasmid pGL3basic used. The cloning and sequencing of the reporter plasmid pGL3basic-5xGAL4-TK took place in analogy to the description in Sambrook J. et. al. (Molecular cloning, Cold Spring Harbor Laboratory Press, 1989).
The PPARgamma expression plasmid pcDNA3-GAL4-humanPPARgammaLBD was prepared by first cloning the cDNA coding for amino acids 1-147 of the yeast transcription factor GAL4 (Genbank Accession #P04386) into the plasmid pcDNA3 (from Invitrogen) 3′-downstream of the cytomegalovirus promoter. Subsequently, the cDNA of the ligand-binding domain (LBD) of the human PPARgamma receptor (amino acids I152-Y475; Accession #g1480099) 3′-downstream of the GAL4 DNA binding domain. Cloning and sequencing of the PPARgamma expression plasmid pcDNA3-GAL4-humanPPARgammaLBD again took place in analogy to the description in Sambrook J. et. al. (Molecular cloning, Cold Spring Harbor Laboratory Press, 1989). Besides the luciferase reporter plasmid pGL3basic-5xGAL4-TK and the PPARgamma expression plasmid pcDNA3-GAL4-humanPPARgammaLBD, also used for the cellular PPARgamma assay are the reference plasmid pRL-CMV (from Promega) and the plasmid pBluescript SK(+) from Stratagene. All four plasmids were prepared using a plasmid preparation kit from Qiagen, which ensured a plasmid quality with a minimal endotoxin content, before transfection into HEK cells.
The activity of PPARgamma agonists is determined in a 4-day assay which is described below. Before the transfection, HEK cells are cultivated in DMEM (#41965-039, Invitrogen) which is mixed with the following additions: 10% FCS (#16000-044, Invitrogen), 1% penicillin-streptomycin solution (#15140-122, Invitrogen) and 2 mM L-glutamine (#25030-024, Invitrogen).
Firstly, solution A, a transfection mixture which contains all four plasmids previously described in addition to DMEM, is prepared. The following amounts are used to make up 3 ml of solution A for each 96 well microtiter plate for an assay: 2622 μl of antibiotic- and serum-free DMEM (#41965-039, Invitrogen), 100 μl of reference plasmid pRL-CMV (1 ng/μl), 100 μl of luciferase reporter plasmid pGL3basic-5xGAL4-TK (10 ng/μl), 100 μl of PPARgamma expression plasmid pcDNA3-GAL4-humanPPARgammaLBD (100 ng/μl) and 78 μl of plasmid pBluescript SK(+) (500 ng/μl). […]

EC50 [nM]	Structure (SMILES)
1	CCOc1cc(C(F)(F)F)ccc1C(=O)NC1Cc2ccc(S(=O)(=O)Nc3nnc(C(C)C)s3)cc2C1 (racemic) [Example 1, 2-Ethoxy-N-[5-(5-isopropyl-[1,3,4]thiadiazol-2-ylsulfamoyl)-indan-2-yl]-4-trifluoromethyl-benzamide]
22	CCOc1cc(C(F)(F)F)ccc1C(=O)NC1Cc2ccc(S(=O)(=O)Nc3nnc(C(C)C)s3)cc2C1 (single isomer, unassigned; enantiomer 1) [Example 1.1, 2-Ethoxy-N-[5-(5-isopropyl-[1,3,4]thiadiazol-2-ylsulfamoyl)-indan-2-yl]-4-trifluoromethyl-benzamide (Enantiomer 1)]
> 10000	CCOc1cc(C(F)(F)F)ccc1C(=O)NC1Cc2ccc(S(=O)(=O)Nc3nnc(C(C)C)s3)cc2C1 (single isomer, unassigned; enantiomer 2) [Example 1.2, 2-Ethoxy-N-[5-(5-isopropyl-[1,3,4]thiadiazol-2-ylsulfamoyl)-indan-2-yl]-4-trifluoromethyl-benzamide (Enantiomer 2)]
100	CCOc1cc(C(F)(F)F)ccc1C(=O)N[C@H]1CCc2ccc(S(=O)(=O)Nc3nnc(C(C)C)s3)cc2C1 [Example 5, 2-Ethoxy-N-[(S)-7-(5-isopropyl-[1,3,4]thiadiazol-2-ylsulfamoyl)-1,2,3,4-tetrahydro-naphthalen-2-yl]-4-trifluoromethyl-benzamide]
200	CCOc1cc(C(F)(F)F)ccc1C(=O)N[C@@H]1CCc2ccc(S(=O)(=O)Nc3nnc(C(C)C)s3)cc2C1 [Example 6, 2-Ethoxi-N-[(R)-7-(5-isopropyl-[1,3,4]thiadiazol-2-ylsulfamoyl)-1,2,3,4-tetrahydro-naphthalene-2-yl]-4-trifluoromethyl-benzamide]
> 10000	CCOc1cc(C(F)(F)F)sc1C(=O)NC1Cc2ccc(S(=O)(=O)Nc3nnc(C(C)C)s3)cc2C1 (stereo not drawn) [Example 11, 3-Ethoxy-5-trifluoromethyl-thiophene-2-carboxylic acid [5-(5-isopropyl-[1,3,4]thiadiazol-2-ylsulfamoyl)-indan-2-yl]-amide]
